The values that follow come from BindingDB's records for doi:10.1111/cbdd.12375 (Ferdowsi University of Mashhad, 2015).

pIC50: −log10 of the molar value. Where only a bound is given, the exact number is not on record here.

In this assay the target is T1, Seed linoleate 13S-lipoxygenase-1 (Glycine max, UniProt P08170).
T1 sequence (P08170 whole entry): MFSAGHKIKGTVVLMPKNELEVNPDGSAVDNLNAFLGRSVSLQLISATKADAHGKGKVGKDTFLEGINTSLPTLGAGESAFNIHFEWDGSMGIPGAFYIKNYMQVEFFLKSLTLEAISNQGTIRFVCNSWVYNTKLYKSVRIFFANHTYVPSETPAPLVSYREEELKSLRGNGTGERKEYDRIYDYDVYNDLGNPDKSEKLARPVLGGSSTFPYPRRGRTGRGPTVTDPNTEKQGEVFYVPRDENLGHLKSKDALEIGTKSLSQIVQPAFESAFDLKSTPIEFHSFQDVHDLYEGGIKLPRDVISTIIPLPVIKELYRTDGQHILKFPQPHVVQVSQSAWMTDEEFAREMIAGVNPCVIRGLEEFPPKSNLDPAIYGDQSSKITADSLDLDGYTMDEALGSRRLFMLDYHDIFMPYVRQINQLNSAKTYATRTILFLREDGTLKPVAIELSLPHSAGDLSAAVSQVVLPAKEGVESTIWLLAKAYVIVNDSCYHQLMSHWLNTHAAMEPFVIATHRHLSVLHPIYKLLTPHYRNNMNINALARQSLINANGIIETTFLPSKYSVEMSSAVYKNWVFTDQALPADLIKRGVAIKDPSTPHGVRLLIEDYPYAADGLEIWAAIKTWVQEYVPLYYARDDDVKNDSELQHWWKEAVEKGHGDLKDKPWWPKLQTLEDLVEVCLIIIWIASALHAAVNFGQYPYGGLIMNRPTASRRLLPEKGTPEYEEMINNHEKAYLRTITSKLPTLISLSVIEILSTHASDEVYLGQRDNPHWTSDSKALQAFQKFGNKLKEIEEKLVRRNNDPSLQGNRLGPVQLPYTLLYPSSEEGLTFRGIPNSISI
Kind of assay: 15LO Inhibition Assay. The conditions noted are these: pH 7; 25 °C. The protocol: Linoleic acid and two assay solutions (A and B) were prepared in advance. Solution A was 50 mM 3-(dimethylamino)benzoic acid (DMAB) in a 100 mM phosphate buffer (pH 7.0). Solution B was a mixture of 10 mM 3-methyl-2-benzothiazolinone (MBTH) 3 mL, hemoglobin (5 mg/mL, 3 mL) in 50 mM phosphate buffer at pH 5.0 (25 mL). A linoleic acid solution was prepared by mixing 5 mg of linoleic acid with 50 mg Tween-20 in 3 mL water and then diluting with KOH 100 mM to a final volume of 5 mL. In the standard assay, the sample in ethanol ([…]), soybean 15-lipo-oxygenase (SLO) (4000 units/mL in 50 mM phosphate buffer pH 7.0; […]) and phosphate buffer pH 7.0 (50 mM; […]) were mixed in a test-tube, and preincubation was carried out for 5 min at room temperature. A control test was done with the same volume of ethanol. After the preincubation, linoleic acid solution […] was added to start the peroxidation reaction, and 7 min later,solution A […] and then solution B […] was added to

Broadly, the pIC50 is the IC50 on a negative log10 scale, so that one unit is a factor of ten. Lower therefore signals a high IC50. As for `CCN1CCN(c2nc(C)c(Br)c(Sc3nnc(Sc4nc(N5CCN(CC)CC5)nc(C)c4Br)n3N)n2)CC1` [3,5-bis((5-bromo-6-methyl-2-(4-ethylpiperazin-1-yl)pyrimidin-4-yl)thio)-4H-1,2,4-triazol-4-amine (4f)], the pIC50 was 4.92.
`Cc1nc(N2CCN(C)CC2)nc(Sc2nnc(Sc3nc(N4CCN(C)CC4)nc(C)c3Br)n2N)c1Br` [3,5-bis((5-bromo-6-methyl-2-(4-methylpiperazin-1-yl)pyrimidin-4-yl)thio)-4H-1,2,4-triazol-4-amine (4d)] gave a pIC50 of 5.05.
On to `Cc1nc(N2CCC(C)CC2)nc(Sc2nnc(Sc3nc(N4CCC(C)CC4)nc(C)c3Br)n2N)c1Br` [3,5-bis((5-bromo-6-methyl-2-(4-methylpiperidin-1-yl)pyrimidin-4-yl)thio)-4H-1,2,4-triazol-4-amine (4c)], for which the pIC50 was less than 3.30.
To `Cc1nc(N2CCN(c3ccccc3)CC2)nc(Sc2nnc(Sc3nc(N4CCN(c5ccccc5)CC4)nc(C)c3Br)n2N)c1Br` [3,5-bis((5-bromo-6-methyl-2-(4-phenylpiperazin-1-yl)pyrimidin-4-yl)thio)-4H-1,2,4-triazol-4-amine (4e)] belongs less than 3.30; to `Cc1nc(N2CCCCC2)nc(Sc2nnc(Sc3nc(N4CCCCC4)nc(C)c3Br)n2N)c1Br` [3,5-bis((5-bromo-6-methyl-2-(piperidin-1-yl)pyrimidin-4-yl)thio)-4H-1,2,4-triazol-4-amine (4b)], less than 3.30; to `Cc1nc(N2CCCC2)nc(Sc2nnc(Sc3nc(N4CCCC4)nc(C)c3Br)n2N)c1Br` [3,5-bis((5-bromo-6-methyl-2-(pyrrolidin-1-yl)pyrimidin-4-yl)thio)-4H-1,2,4-triazol-4-amine (4g)], less than 3.30.
The figure for `Cc1nc(N2CCOCC2)nc(Sc2nnc(Sc3nc(N4CCOCC4)nc(C)c3Br)n2N)c1Br` [3,5-bis((5-bromo-6-methyl-2-morpholinopyrimidin-4-yl)thio)-4H-1,2,4-triazol-4-amine (4a)] is less than 3.30.
